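All cell lines were grown in 96-well plates and treated with compound for 48 hours. GI50 = concentration required for 50% inhibition of growth.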 The source made the active and inactive calls. Rule as the data show it: active = GI50 up to about 1.1 µM and inactive = higher.
Columns and labels:
Assay in all cases: NCI tumour cell line growth inhibition, 48 h
NCI/ADR-RES = system: NCI/ADR-RES
SNB-75 = system: SNB-75
MCF7 = system: MCF7
UO-31 = system: UO-31
SNB-19 = system: SNB-19
UACC-257 = system: UACC-257
MDA-MB-435 = system: MDA-MB-435
T47D = system: T47D
Malme-3M = system: Malme-3M
U-251 = system: U-251
NCI-H23 = system: NCI-H23
RPMI-8226 = system: RPMI-8226
SR = system: SR
BT-549 = system: BT-549
SK-MEL-28 = system: SK-MEL-28
SF-295 = system: SF-295
DU-145 = system: DU-145
SF-268 = system: SF-268
CAKI-1 = system: CAKI-1
IGROV-1 = system: IGROV-1

| Compound | GI50 (NCI/ADR-RES) | GI50 (SNB-75) | GI50 (MCF7) | GI50 (UO-31) | GI50 (SNB-19) | GI50 (UACC-257) | GI50 (MDA-MB-435) | GI50 (T47D) | GI50 (Malme-3M) | GI50 (U-251) | GI50 (NCI-H23) | GI50 (RPMI-8226) | GI50 (SR) | GI50 (BT-549) | GI50 (SK-MEL-28) | GI50 (SF-295) | GI50 (DU-145) | GI50 (SF-268) | GI50 (CAKI-1) | GI50 (IGROV-1) |
| --- | --- | --- | --- | --- | --- | --- | --- | --- | --- | --- | --- | --- | --- | --- | --- | --- | --- | --- | --- | --- |
| COc1ccc2cc(CNCCCCCCCCCCCCNCc3ccc4cc(OC)ccc4c3)ccc2c1 | 19.5 µM (inactive) | 13.9 µM (inactive) | 17.1 µM (inactive) | 20.9 µM (inactive) | 17.5 µM (inactive) | 21 µM (inactive) | 25.6 µM (inactive) | 15.8 µM (inactive) | 16.6 µM (inactive) | 20.8 µM (inactive) | 20 µM (inactive) | 12.8 µM (inactive) | 1.79 µM (inactive) | 18.9 µM (inactive) | 27.7 µM (inactive) | 19.5 µM (inactive) | 30 µM (inactive) | 8.04 µM (inactive) | 20.9 µM (inactive) | 15.8 µM (inactive) |
| COc1cc2c3c(c4ccc(O)cc4c2cc1OC)[C@@H](O)[C@@H]1CCCN1C3 | 0.00166 µM (active) | < 0.001 µM (active) | < 0.001 µM (active) | < 0.001 µM (active) | < 0.001 µM (active) | 0.00121 µM (active) | < 0.001 µM (active) | < 0.001 µM (active) | < 0.001 µM (active) | < 0.001 µM (active) | 0.0012 µM (active) | < 0.001 µM (active) | < 0.001 µM (active) | 0.00168 µM (active) | < 0.001 µM (active) | < 0.001 µM (active) | < 0.001 µM (active) | < 0.001 µM (active) | < 0.001 µM (active) | < 0.001 µM (active) |
| COC(=O)C1=COC2OC3CC1C2C(C)O3 (stereo not drawn) | > 100 µM (inactive) | – | > 100 µM (inactive) | > 100 µM (inactive) | > 100 µM (inactive) | > 100 µM (inactive) | > 100 µM (inactive) | > 100 µM (inactive) | > 100 µM (inactive) | > 100 µM (inactive) | > 100 µM (inactive) | > 100 µM (inactive) | > 100 µM (inactive) | > 100 µM (inactive) | > 100 µM (inactive) | > 100 µM (inactive) | > 100 µM (inactive) | > 100 µM (inactive) | > 100 µM (inactive) | > 100 µM (inactive) |
| O=C1CSC2(CC(/C=C/c3cccc([N+](=O)[O-])c3)=NN2c2cccc(S(=O)(=O)O)c2)N1c1nc2ccccc2s1 (stereo not drawn) | 22.5 µM (inactive) | 20 µM (inactive) | 17.6 µM (inactive) | 19.6 µM (inactive) | 21 µM (inactive) | 38.9 µM (inactive) | 18.5 µM (inactive) | 24.6 µM (inactive) | 51.3 µM (inactive) | 17.6 µM (inactive) | 16.7 µM (inactive) | 17.4 µM (inactive) | 19.6 µM (inactive) | 16.3 µM (inactive) | 57 µM (inactive) | – | 19.6 µM (inactive) | 26 µM (inactive) | 49.7 µM (inactive) | 13.9 µM (inactive) |

From ChEMBL document CHEMBL1201862, “PubChem BioAssay data set” (2004)
